For one compound, IC50 results are on record in ChEMBL document CHEMBL2074206, “Uraemic toxins induce proximal tubular injury via organic anion transporter 1-mediated uptake” (Br J Pharmacol, 2002).

In the assay the target is T1, Solute carrier family 22 member 6 (Homo sapiens, UniProt Q4U2R8).
T1 sequence (Q4U2R8 whole entry): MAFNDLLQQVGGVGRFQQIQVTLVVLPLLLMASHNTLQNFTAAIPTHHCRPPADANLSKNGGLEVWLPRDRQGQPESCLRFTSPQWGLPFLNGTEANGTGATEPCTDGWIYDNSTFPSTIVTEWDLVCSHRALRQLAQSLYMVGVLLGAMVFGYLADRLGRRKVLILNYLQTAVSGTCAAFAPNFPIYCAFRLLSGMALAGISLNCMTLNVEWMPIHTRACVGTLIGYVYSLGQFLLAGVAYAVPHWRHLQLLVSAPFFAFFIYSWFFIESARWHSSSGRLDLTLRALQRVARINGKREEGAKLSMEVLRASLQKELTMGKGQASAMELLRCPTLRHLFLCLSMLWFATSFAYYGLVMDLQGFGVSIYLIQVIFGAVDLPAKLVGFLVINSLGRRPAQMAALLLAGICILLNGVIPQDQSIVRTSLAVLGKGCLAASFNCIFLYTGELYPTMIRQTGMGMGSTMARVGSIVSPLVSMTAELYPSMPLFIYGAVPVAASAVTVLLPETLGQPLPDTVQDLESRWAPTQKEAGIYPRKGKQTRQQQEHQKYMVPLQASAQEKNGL
The assay is described as follows: TP_TRANSPORTER: inhibition of PAH uptake in OAT1-expressing OK cells. It is filed as functional, cell-based.

Structures are written as SMILES.

With `O=C(O)CNC(=O)c1ccc(O)cc1`, the IC50 was found to be 25 µM. In other words, the double-digit micromolar range.
